# Key:
# KRAS G12D = target: T1, KRAS G12D (Homo sapiens, UniProt P01116, G12D); test: HTRF assay, KRAS G12D interaction with SOS1; assay type: biochemical; settings: bins <500 nM / 500 nM to 1000 nM, read-out: Inhibition of KRAS G12D (IC50)
# T1 construct: made in house; host or cells: E. coli, e.g. BL21 (DE3)
# KRAS WT = target: T2, KRAS WT (Homo sapiens, UniProt P01116); test: HTRF assay, wildtype KRAS interaction with SOS1; assay type: biochemical; settings: bins <500 nM / 500 nM to 1000 nM, read-out: Inhibition of KRAS WT (IC50)
# T2 construct: made in house; host or cells: E. coli, e.g. BL21 (DE3)
# KRAS G12V = target: T3, KRAS G12V (Homo sapiens, UniProt P01116, G12V); test: HTRF assay, KRAS G12V interaction with SOS1; assay type: biochemical; settings: bins <500 nM / 500 nM to 1000 nM, read-out: Inhibition of KRAS G12V (IC50)
# T3 construct: made in house; host or cells: E. coli, e.g. BL21 (DE3)
# KRAS G12S = target: T4, KRAS G12S (Homo sapiens, UniProt P01116, G12S); test: HTRF assay, KRAS G12S interaction with SOS1; assay type: biochemical; settings: bins <500 nM / 500 nM to 1000 nM, read-out: Inhibition of KRAS G12S (IC50)
# T4 construct: made in house; host or cells: E. coli, e.g. BL21 (DE3)
# MiaPaca2 cells = test: Ras cellular assay, growth of cells with K-Ras G12C mutation; assay type: cell-based; settings: Homo sapiens, MIA PaCa-2; cell proliferation assay; bins ≤500 nM / >500 nM; read-out: Inhibition of MiaPaca2 Cells (IC50)
# Description: For example, this assay can be also used to assess selective growth inhibition of a mutant Ras protein relative to a wildtype or different mutant Ras protein.
# MIA PaCa-2 (ATCC CRL-1420) and NCI-H1792 (ATCC CRL-5895) cell lines comprise a G12C mutation and can be used to assess Ras cellular signaling in vitro, e.g., in response to an inhibitor compound of the present disclosure. […] MIA PaCa-2 culture medium is prepared with DMEM/Ham's F12 (e.g., with stable glutamine, 10% FCS, and 2.5% horse serum. NCI-H1792 culture medium is prepared with RPMI 1640 (e.g., with stable glutamine) and 10% FCS.
# On a first day (e.g., Day 1), Softagar (Select Agar, Invitrogen, 3% in ddH2O autoclaved) is boiled and tempered at 48° C. Appropriate culture medium (i.e., medium) is tempered to 37° C. Agar (3%) is diluted 1:5 in medium (=0.6%) and plated into 96 well plates (Corning, #3904), then incubated at room temperature for agar solidification. A 3% agar is diluted to 0.25% in medium (1:12 dilution) and tempered at 42° C. Cells are trypsinized, counted, and tempered at 37° C. The cells (e.g., MIA PaCa-2 at about 125-150 cells, NCI-H1792 at about 1000 cells) are resuspended in […] 0.25% Agar and plated, followed by incubation at room temperature for agar solidification. The wells are overlaid with […] of the medium. Sister wells in a separate plate are plated for time zero determination. All plates are incubated overnight at 37° C. and 5% CO2.
# On a second day (e.g., Day 2), time zero values are measured. A […] volume of Cell Titer 96 Aqueous Solution (Promega) is added to each well and incubated in the dark at 37° C. and 5% CO2. Absorption can be measured at 490 nm and reference wavelength 660 nm. DMSO-prediluted test compounds are added to wells of interest, e.g., with HP Dispenser, to one or more desired concentrations (e.g., a final DMSO concentration of 0.3%).
# On a tenth day (e.g., Day 10), absorption by wells treated with the test compounds and control wells are measured with, for example, Cell Titer 96 AQueous and analyzed in comparison to the time zero measurements. The IC50 values are determined using the four parameter fit. The resulting IC50 value is a measurement of the ability of the test compound to reduce cell growth of Ras-driven cells (e.g., tumor cell lines) in vitro and/or in vivo.
# T2 sequence (P01116 1-188 isoform P01116-2): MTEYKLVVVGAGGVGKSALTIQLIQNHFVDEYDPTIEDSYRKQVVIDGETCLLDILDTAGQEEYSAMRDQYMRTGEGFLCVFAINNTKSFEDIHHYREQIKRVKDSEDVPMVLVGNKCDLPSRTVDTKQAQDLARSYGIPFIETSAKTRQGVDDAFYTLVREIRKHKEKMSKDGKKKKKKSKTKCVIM
# T3 sequence (P01116 1-188 isoform P01116-2 G12V): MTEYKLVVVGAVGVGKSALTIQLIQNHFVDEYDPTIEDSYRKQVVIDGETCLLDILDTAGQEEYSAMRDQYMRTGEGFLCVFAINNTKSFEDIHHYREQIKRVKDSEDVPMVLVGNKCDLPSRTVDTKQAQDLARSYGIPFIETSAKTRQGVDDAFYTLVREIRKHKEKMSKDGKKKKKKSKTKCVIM
# T1 sequence (P01116 1-188 isoform P01116-2 G12D): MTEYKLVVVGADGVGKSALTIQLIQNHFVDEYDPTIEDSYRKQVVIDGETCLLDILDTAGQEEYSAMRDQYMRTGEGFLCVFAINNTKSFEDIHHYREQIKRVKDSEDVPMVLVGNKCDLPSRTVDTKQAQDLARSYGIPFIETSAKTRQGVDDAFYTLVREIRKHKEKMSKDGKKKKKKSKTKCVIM
# T4 sequence (P01116 1-188 isoform P01116-2 G12S): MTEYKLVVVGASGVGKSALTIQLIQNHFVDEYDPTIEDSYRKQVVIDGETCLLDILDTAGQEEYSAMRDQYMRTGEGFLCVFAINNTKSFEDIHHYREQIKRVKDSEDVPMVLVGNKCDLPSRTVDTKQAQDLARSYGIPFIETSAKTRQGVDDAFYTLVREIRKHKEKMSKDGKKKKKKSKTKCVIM
IC50 (KRAS G12D),IC50 (KRAS WT),IC50 (KRAS G12V),IC50 (KRAS G12S),IC50 (MiaPaca2 cells),Compound
< 0.5 µM,< 0.5 µM,< 0.5 µM,< 0.5 µM,≤ 0.5 µM,"CCN(c1nc(OC[C@@]23CCCN2C[C@H](F)C3)nc2c(F)c(-c3ccc(F)c4sc(N)c(C#N)c34)c(C(F)(F)F)cc12)[C@@H]1CCN(C(=O)n2cnc(C)c2C)[C@@H]1C [Compound 110, 2-amino-4-(4-(((2R,3R)-1-(4,5-dimethyl-1H-imidazole-1-carbonyl)-2-methylpyrrolidin-3-yl)(ethyl)amino)-8-fluoro-2-(((2R,7aS)-2-fluorotetrahydro-1H-pyrrolizin-7a(5H)-yl)methoxy)-6-(trifluoromethyl)quinazolin-7-yl)-7-fluorobenzo[b]thiophene-3-carbonitrile]"
< 0.5 µM,< 0.5 µM,< 0.5 µM,< 0.5 µM,≤ 0.5 µM,"Cc1c(C#N)ncn1C(=O)N1C[C@]2(CCCCN(c3nc(OC[C@@]45CCCN4C[C@H](F)C5)nc4c(F)c(-c5ccc(F)c6sc(N)c(C#N)c56)c(Cl)cc34)C2)[C@H]1C1(C)CC1 [Compound 111, 1-((1R,4R)-6-(7-(2-amino-3-cyano-7-fluorobenzo[b]thiophen-4-yl)-6-chloro-8-fluoro-2-(((2R,7aS)-2-fluorotetrahydro-1H-pyrrolizin-7a(5H)-yl)methoxy)quinazolin-4-yl)-1-(1-methylcyclopropyl)-2,6-diazaspiro[3.6]decane-2-carbonyl)-5-methyl-1H-imidazole-4-carbonitrile]"
< 0.5 µM,< 0.5 µM,< 0.5 µM,< 0.5 µM,≤ 0.5 µM,"C[C@@H]1[C@H](N(C)c2nc(OC[C@@]34CCCN3C[C@H](F)C4)nc3c(F)c(-c4ccc(F)c5sc(N)c(C#N)c45)c(Cl)cc23)CCN1C(=O)n1cnc(F)n1 [Compound 112, 2-amino-4-(6-chloro-8-fluoro-4-(((2R,3R)-1-(3-fluoro-1H-1,2,4-triazole-1-carbonyl)-2-methylpyrrolidin-3-yl)(methyl)amino)-2-(((2R,7aS)-2-fluorotetrahydro-1H-pyrrolizin-7a(5H)-yl)methoxy)quinazolin-7-yl)-7-fluorobenzo[b]thiophene-3-carbonitrile]"
< 0.5 µM,< 0.5 µM,< 0.5 µM,< 0.5 µM,≤ 0.5 µM,"CCN(c1nc(OC[C@@]23CCCN2C[C@H](F)C3)nc2c(F)c(-c3ccc(F)c4sc(N)c(C#N)c34)c(Cl)cc12)[C@@H]1CCN(C(=O)n2cnc(F)n2)[C@@H]1C [Compound 115, 2-amino-4-(6-chloro-4-(ethyl((2R,3R)-1-(3-fluoro-1H-1,2,4-triazole-1-carbonyl)-2-methylpyrrolidin-3-yl)amino)-8-fluoro-2-(((2R,7aS)-2-fluorotetrahydro-1H-pyrrolizin-7a(5H)-yl)methoxy)quinazolin-7-yl)-7-fluorobenzo[b]thiophene-3-carbonitrile]"
< 0.5 µM,< 0.5 µM,< 0.5 µM,< 0.5 µM,≤ 0.5 µM,"Cc1nccn1C(=O)N1CC[C@@]12CCN(c1nc(OC[C@@]34CCCN3C[C@H](F)C4)nc3c(F)c(-c4ccc(F)c5sc(N)c(C#N)c45)c(Cl)cc13)C2 [Compound 116, 2-amino-4-(6-chloro-8-fluoro-2-(((2R,7aS)-2-fluorotetrahydro-1H-pyrrolizin-7a(5H)-yl)methoxy)-4-((R)-1-(2-methyl-1H-imidazole-1-carbonyl)-1,6-diazaspiro[3.4]octan-6-yl)quinazolin-7-yl)-7-fluorobenzo[b]thiophene-3-carbonitrile]"
< 0.5 µM,< 0.5 µM,< 0.5 µM,< 0.5 µM,≤ 0.5 µM,"CN(c1nc(OC[C@@]23CCCN2C[C@H](F)C3)nc2c(F)c(-c3ccc(F)c4sc(N)c(C#N)c34)c(Cl)cc12)[C@@H]1CCN(C(=O)n2ccnc2)C1 [Compound 118, 4-(4-(((R)-1-(1H-imidazole-1-carbonyl)pyrrolidin-3-yl)(methyl)amino)-6-chloro-8-fluoro-2-(((2R,7aS)-2-fluorotetrahydro-1H-pyrrolizin-7a(5H)-yl)methoxy)quinazolin-7-yl)-2-amino-7-fluorobenzo[b]thiophene-3-carbonitrile]"
< 0.5 µM,< 0.5 µM,< 0.5 µM,< 0.5 µM,≤ 0.5 µM,"N#Cc1c(N)sc2c(F)ccc(-c3c(Cl)cc4c(N5CCCCC6(CN(C(=O)n7ccnc7Br)C6)C5)nc(OC[C@@]56CCCN5C[C@H](F)C6)nc4c3F)c12 [Compound 119, 2-amino-4-(4-(2-(2-bromo-1H-imidazole-1-carbonyl)-2,6-diazaspiro[3.6]decan-6-yl)-6-chloro-8-fluoro-2-(((2R,7aS)-2-fluorotetrahydro-1H-pyrrolizin-7a(5H)-yl)methoxy)quinazolin-7-yl)-7-fluorobenzo[b]thiophene-3-carbonitrile]"
< 0.5 µM,< 0.5 µM,< 0.5 µM,< 0.5 µM,≤ 0.5 µM,"Cc1nccn1C(=O)N1CC[C@@H](N(C)c2nc(OC[C@@]34CCCN3C[C@H](F)C4)nc3c(F)c(-c4ccc(F)c5sc(N)c(C#N)c45)c(Cl)cc23)[C@H]1C [Compound 120, 2-amino-4-(6-chloro-8-fluoro-2-(((2R,7aS)-2-fluorotetrahydro-1H-pyrrolizin-7a(5H)-yl)methoxy)-4-(methyl((2R,3R)-2-methyl-1-(2-methyl-1H-imidazole-1-carbonyl)pyrrolidin-3-yl)amino)quinazolin-7-yl)-7-fluorobenzo[b]thiophene-3-carbonitrile]"
< 0.5 µM,< 0.5 µM,< 0.5 µM,< 0.5 µM,≤ 0.5 µM,"Cc1c(C#N)ncn1C(=O)N1CC[C@@]12CCN(c1nc(OC[C@@]34CCCN3C[C@H](F)C4)nc3c(F)c(-c4ccc(F)c5sc(N)c(C#N)c45)c(Cl)cc13)C2 [Compound 121, 1-((4R)-6-(7-(2-amino-3-cyano-7-fluorobenzo[b]thiophen-4-yl)-6-chloro-8-fluoro-2-(((2R,7aS)-2-fluorotetrahydro-1H-pyrrolizin-7a(5H)-yl)methoxy)quinazolin-4-yl)-1,6-diazaspiro[3.4]octane-1-carbonyl)-5-methyl-1H-imidazole-4-carbonitrile]"
< 0.5 µM,< 0.5 µM,< 0.5 µM,< 0.5 µM,≤ 0.5 µM,"Cc1nccn1C(=O)N1CC2(CCN(c3nc(OC[C@@]45CCCN4C[C@H](F)C5)nc4c(F)c(-c5ccc(F)c6sc(N)c(C#N)c56)c(Cl)cc34)C2)C1 [Compound 123, 2-amino-4-(6-chloro-8-fluoro-2-(((2R,7aS)-2-fluorotetrahydro-1H-pyrrolizin-7a(5H)-yl)methoxy)-4-(2-(2-methyl-1H-imidazole-1-carbonyl)-2,6-diazaspiro[3.4]octan-6-yl)quinazolin-7-yl)-7-fluorobenzo[b]thiophene-3-carbonitrile]"
< 0.5 µM,< 0.5 µM,< 0.5 µM,< 0.5 µM,≤ 0.5 µM,"C[C@@H]1[C@H](N(C)c2nc(OC[C@@]34CCCN3C[C@H](F)C4)nc3c(F)c(-c4ccc(F)c5sc(N)c(C#N)c45)c(Cl)cc23)CCN1C(=O)n1ccnc1 [Compound 124, 4-(4-(((2R,3R)-1-(1H-imidazole-1-carbonyl)-2-methylpyrrolidin-3-yl)(methyl)amino)-6-chloro-8-fluoro-2-(((2R,7aS)-2-fluorotetrahydro-1H-pyrrolizin-7a(5H)-yl)methoxy)quinazolin-7-yl)-2-amino-7-fluorobenzo[b]thiophene-3-carbonitrile]"
